Measurements published in paper PMC6651454, “An Established HPLC-MS/MS Method for Evaluation of the Influence of Salt Processing on Pharmacokinetics of Six Compounds in Cuscutae Semen” (Molecules, 2019).
Where two headings read alike, the source gives them in different places.

Assay: Pharmacokinetics in rat plasma after oral administration of SF-CS and SP-CS extracts (HPLC-MS/MS)
Assay type: in vivo, Male Sprague-Dawley rats
Conditions: for Tmax / AUC(0-inf) / Cmax / AUC(0-t) / MRT last: male, Sprague-Dawley; for Tmax / AUC(0-inf) / Cmax / AUC(0-t) / MRT last / Shape of plasma concentration-time profile / T1/2ka / T1/2α / AUC(0–24h): rat plasma; for AUC(0-t): read-out: AUC0–24h; for MRT last: read-out: MRT0–24h; for Shape of plasma concentration-time profile: oral SF-CS and SP-CS extracts
Experimental: All components were measured on an Agilent 1200 HPLC system (Agilent Corporation, Santa Clara, CA, USA) and API 3200 triple quadrupole mass spectrometer (Concord, ON, Canada) in negative ion mode. Acetonitrile (A) and 0.1% formic acid-water (B) were used to separate the analytes on an Agilent Eclipse plus C18 column (4.6 mm × 100 mm, 1.8 μm) with a flow rate of 0.5 mL·min^−1. […] The equilibration time (10 min) of the sequence was added before the next injection. The column temperature was 30 °C. The optimized main parameters, namely curtain gas, collision gas, ion Spray voltage, and temperature, were set at 30 psi, 8 psi, −4000 V, and 600 °C, respectively.
The plasma sample (100 μL), IS (10 μL) and formic acid (10 μL) were mixed and vortexed for 1 min. Then, 1 mL of ethyl acetate was spiked into the mixed solution and centrifuged for 10 min at 14,000 rpm. The supernatant was transferred and evaporated with nitrogen gas. These residues were re-dissolved with 100 μL methanol. The final solutions were vortexed for 2 min and centrifuged for 10 min. The supernatant was injected into the HPLC-MS/MS and analyzed.
The pharmacokinetic study was conducted in accordance with the Guidelines for the Care and Use of Laboratory Animals by USA National Institutes of Health and approved by the Animal Ethics Committee of Tianjin University of Traditional Chinese Medicine (the permit number: TCM-LAEC2019023, Tianjin, China). Male Sprague-Dawley rats (200–240 g) were fed in the animal laboratory of Tianjin University of Traditional Chinese Medicine under the standard conditions. These rats were fed and given water for 1 week before experimentation. […] In order to investigate the influence of processing on the metabolic process of active ingredients in vivo, the same amount of raw CS was processed and administrated. Depending on the clinical dosage that was applied to the human body, the dosage of SF-CS extracts was 1.9 g kg^−1 (an equivalent dosage of 12.75 g kg^−1 raw CS) for oral administration, while extraction of SP-CS was 2.2 g kg^−1 (an equivalent dosage of 12.50 g kg^−1 raw CS). In order to investigate the influence of salt on the metabolic process of active ingredients in vivo, the dosage of SF-CS extracts was 1.9 g kg^−1 (an equivalent dosage of 12.75 g kg^−1 raw CS) and SF-CS extracts with salt ( 0.26 g kg^−1 ) were used to perform the pharmacokinetic study. […] The collected plasma was centrifuged for 10 min at 6000 rpm and stored at −20 °C before analysis.
All of the pharmacokinetic parameters were estimated with the DAS1.0 system (Medical College of Wannan, China). The maximum concentration of oral administration of CS (Cmax) and the time to reach Cmax (Tmax) were achieved from the concentration–time profile. All values were shown as mean ± standard deviation. Independent t-test was used to compare the pharmacokinetic parameters of the two processed CS.

[1] = oral SF-CS extract (A) 1.9 g kg^-1, n = 10
[2] = oral SF-CS extract (A) 1.9 g kg^-1, n = 10, mean ± SD
[3] = oral SP-CS extract (B) 2.2 g kg^-1, n = 10
[4] = oral SP-CS extract (B) 2.2 g kg^-1, n = 10, mean ± SD

Row | SMILES | Tmax [1] | AUC(0-inf) [2] | Cmax [2] | AUC(0-t) [2] | MRT last [2] | Tmax [3] | AUC(0-inf) [4] | Cmax [4] | AUC(0-t) [4] | MRT last [4] | Shape of plasma concentration-time profile | T1/2ka [2] | T1/2α [2] | T1/2ka [4] | T1/2α [4] | AUC(0–24h) (oral SF-CS extract) | AUC(0–24h) (oral SP-CS extract) | Detection in rat plasma (after oral administration of the two processed products of CS, LLOQ 2 ng·mL^−1)
1 | O=c1c(O[C@@H]2O[C@H](CO)[C@@H](O)[C@H](O)[C@H]2O)c(-c2ccc(O)cc2)oc2cc(O)cc(O)c12 [Astragalin, astragalin] | 59.4 min | 11.2 ± 10.8 ng·h/mL | 0.65 ± 0.39 ng/mL | 1.27 ± 0.76 ng·h/mL | 2.3 ± 0.98 h | 10.2 min | 2.33 ± 0.72 ng·h/mL | 1.43 ± 0.21 ng/mL | 1.31 ± 0.27 ng·h/mL | 2.13 ± 0.2 h |  | 136 ± 308 min | 24.6 ± 33.2 h | 2.4 ± 0 min | 0.10 ± 0.04 h | 1.27 ± 0.76 ng·h/mL | 1.31 ± 0.27 ng·h/mL | 
2 | O=c1c(O[C@@H]2O[C@H](CO)[C@H](O)[C@H](O)[C@H]2O)c(-c2ccc(O)c(O)c2)oc2cc(O)cc(O)c12 [Hyperin, hyperin] | 44.4 min | 331 ± 80 ng·h/mL | 21.3 ± 6.98 ng/mL | 172 ± 38 ng·h/mL | 9.19 ± 1.5 h | 6.6 min | 185 ± 153 ng·h/mL | 36.6 ± 21.9 ng/mL | 63 ± 27.8 ng·h/mL | 8.66 ± 2.37 h |  | 129 ± 253 min | 11.7 ± 6.73 h | 0.6 ± 0.6 min | 0.46 ± 0.30 h |  |  | 

Results, then the compound that gave them:

Row | Tmax [1] | AUC(0-inf) [2] | Cmax [2] | AUC(0-t) [2] | MRT last [2] | Tmax [3] | AUC(0-inf) [4] | Cmax [4] | AUC(0-t) [4] | MRT last [4] | Shape of plasma concentration-time profile | T1/2ka [2] | T1/2α [2] | T1/2ka [4] | T1/2α [4] | AUC(0–24h) (oral SF-CS extract) | AUC(0–24h) (oral SP-CS extract) | Detection in rat plasma (after oral administration of the two processed products of CS, LLOQ 2 ng·mL^−1) | SMILES
3 | 225 min | 567 ± 376 ng·h/mL | 88.6 ± 39.6 ng/mL | 548 ± 384 ng·h/mL | 5.57 ± 1.74 h | 15.6 min | 178 ± 22 ng·h/mL | 31.8 ± 17.3 ng/mL | 129 ± 38 ng·h/mL | 8.18 ± 1.66 h | double-peak phenomenon | 67.2 ± 99.6 min | 7.72 ± 7.50 h | 1.2 ± 1.2 min | 3.35 ± 4.31 h |  |  |  | O=C(/C=C/c1ccc(O)c(O)c1)O[C@@H]1C[C@@](O)(C(=O)O)C[C@@H](O)[C@@H]1O [Neochlorogenic acid, neochlorogenic acid]
4 | 230 min | 1670 ± 931 ng·h/mL | 257 ± 53 ng/mL | 1660 ± 931 ng·h/mL | 4.81 ± 0.35 h | 16.8 min | 438 ± 289 ng·h/mL | 175 ± 168 ng/mL | 417 ± 281 ng·h/mL | 5.06 ± 1.1 h | double-peak phenomenon | 37.8 ± 52.2 min | 6.53 ± 5.20 h | 1.2 ± 0.6 min | 0.84 ± 0.42 h |  |  |  | O=C(/C=C/c1ccc(O)c(O)c1)O[C@@H]1C[C@](O)(C(=O)O)C[C@@H](O)[C@H]1O [Chlorogenic acid, chlorogenic acid]
5 |  |  |  |  |  |  |  |  |  |  |  |  |  |  |  |  |  | could not be tested | O=c1c(O[C@@H]2O[C@H](CO)[C@@H](O)[C@H](O)[C@H]2O)c(-c2ccc(O)c(O)c2)oc2cc(O)cc(O)c12 [Isoquercitrin, isoquercitrin]
6 | 32.4 min | 3290 ± 591 ng·h/mL | 1210 ± 310 ng/mL | 3200 ± 635 ng·h/mL | 4.24 ± 1.45 h | 19.8 min | 2800 ± 951 ng·h/mL | 805 ± 307 ng/mL | 2570 ± 792 ng·h/mL | 5.68 ± 1.69 h |  | 9 ± 7.2 min | 1.32 ± 0.86 h | 3 ± 2.4 min | 1.40 ± 0.95 h | 3200 ± 635 ng·h/mL | 2570 ± 792 ng·h/mL |  | O=C(O)/C=C/c1ccc(O)cc1 [P-coumaric acid, p-coumaric acid]
